Reference: publication PMC12300041, “Tricyclic Isatin Derivatives as Anti-Inflammatory Compounds with High Kinase Binding Affinity” (Molecules, 2025)

Assays:
Test in all cases: KINOMEscan
Type in all cases: binding
ULK1 = biological target: T1, ULK1 (Homo sapiens, UniProt O75385)
T1 construct: purchased Eurofins DiscoverX KINOMEscan
Procedure, shortened: (§1)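 1 h RT binding → immobilized-ligand capture of free kinase → qPCR quantitation. Kd: 12 half-log points, max 33 μM.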

CAMK2A = biological target: T2, CAMK2A (Homo sapiens, UniProt Q9UQM7)
T2 construct: purchased Eurofins DiscoverX KINOMEscan
Procedure, shortened: as §1

CDKL5 = biological target: T3, CDKL5 (Homo sapiens, UniProt O76039)
T3 construct: purchased Eurofins DiscoverX KINOMEscan
Procedure, shortened: as §1

PRKX = biological target: T4, PRKX (Homo sapiens, UniProt P51817)
T4 construct: purchased Eurofins DiscoverX KINOMEscan
Procedure, shortened: as §1

TRKA = biological target: T5, TRKA (Homo sapiens, UniProt P04629)
T5 construct: purchased Eurofins DiscoverX KINOMEscan
Procedure, shortened: (§2)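 Compound and kinase were incubated at room temperature for 1 h, the free kinase fraction was captured with an immobilized affinity ligand, and capture was quantified by quantitative PCR; Kd values used a 12-point half-log series up to 33 μM.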

KIT (V559D, V654A) = biological target: T6, KIT (V559D, V654A) (Homo sapiens, UniProt P10721, V559D/V654A)
T6 construct: purchased Eurofins DiscoverX KINOMEscan
Procedure, shortened: as §2

ALK (C1156Y) = biological target: T7, ALK (C1156Y) (Homo sapiens, UniProt Q9UM73, C1156Y)
T7 construct: purchased Eurofins DiscoverX KINOMEscan
Procedure, shortened: as §1

PIP5K2C = biological target: T8, PIP5K2C (Homo sapiens, UniProt Q8TBX8)
T8 construct: purchased Eurofins DiscoverX KINOMEscan
Procedure, shortened: as §2

CSK = biological target: T9, CSK (Homo sapiens, UniProt P41240)
T9 construct: purchased Eurofins DiscoverX KINOMEscan
Procedure, shortened: as §1

ADCK3 = biological target: T10, ADCK3 (Homo sapiens, UniProt Q8NI60)
T10 construct: purchased Eurofins DiscoverX KINOMEscan
Procedure, shortened: as §2

CHEK1 = biological target: T11, CHEK1 (Homo sapiens, UniProt O14757)
T11 construct: purchased Eurofins DiscoverX KINOMEscan
Procedure, shortened: as §1

RIPK1 = biological target: T12, RIPK1 (Homo sapiens, UniProt Q13546)
T12 construct: purchased Eurofins DiscoverX KINOMEscan
Procedure, shortened: as §2

AXL = biological target: T13, AXL (Homo sapiens, UniProt P30530)
T13 construct: purchased Eurofins DiscoverX KINOMEscan
Procedure, shortened: as §2

GRK1 = biological target: T14, GRK1 (Homo sapiens, UniProt Q15835)
T14 construct: purchased Eurofins DiscoverX KINOMEscan
Procedure, shortened: as §1

CDK7 = biological target: T15, CDK7 (Homo sapiens, UniProt P50613)
T15 construct: purchased Eurofins DiscoverX KINOMEscan
Procedure, shortened: as §1

LIMK2 = biological target: T16, LIMK2 (Homo sapiens, UniProt P53671)
T16 construct: purchased Eurofins DiscoverX KINOMEscan
Procedure, shortened: as §1

DMPK2 = biological target: T17, DMPK2 (Homo sapiens, UniProt Q6DT37)
T17 construct: purchased Eurofins DiscoverX KINOMEscan
Procedure, shortened: as §1

EIF2AK1 = biological target: T18, EIF2AK1 (Homo sapiens, UniProt Q9BQI3)
T18 construct: purchased Eurofins DiscoverX KINOMEscan
Procedure, shortened: as §1

CASK = biological target: T19, CASK (Homo sapiens, UniProt O14936)
T19 construct: purchased Eurofins DiscoverX KINOMEscan
Procedure, shortened: as §1

MAP3K1 = biological target: T20, MAP3K1 (Homo sapiens, UniProt Q13233)
T20 construct: purchased Eurofins DiscoverX KINOMEscan
Procedure, shortened: as §1

TRKB = biological target: T21, TRKB (Homo sapiens, UniProt Q16620)
T21 construct: purchased Eurofins DiscoverX KINOMEscan
Procedure, shortened: as §1

MAPKAPK5 = biological target: T22, MAPKAPK5 (Homo sapiens, UniProt Q8IW41)
T22 construct: purchased Eurofins DiscoverX KINOMEscan
Procedure, shortened: as §2

PRKCD = biological target: T23, PRKCD (Homo sapiens, UniProt Q05655)
T23 construct: purchased Eurofins DiscoverX KINOMEscan
Procedure, shortened: as §1

TESK1 = biological target: T24, TESK1 (Homo sapiens, UniProt Q15569)
T24 construct: purchased Eurofins DiscoverX KINOMEscan
Procedure, shortened: as §2

NEK6 = biological target: T25, NEK6 (Homo sapiens, UniProt Q9HC98)
T25 construct: purchased Eurofins DiscoverX KINOMEscan
Procedure, shortened: as §1

PKN1 = biological target: T26, PKN1 (Homo sapiens, UniProt Q16512)
T26 construct: purchased Eurofins DiscoverX KINOMEscan
Procedure, shortened: as §1

TIE1 = biological target: T27, TIE1 (Homo sapiens, UniProt P35590)
T27 construct: purchased Eurofins DiscoverX KINOMEscan
Procedure, shortened: as §1

MAP4K2 = biological target: T28, MAP4K2 (Homo sapiens, UniProt Q12851)
T28 construct: purchased Eurofins DiscoverX KINOMEscan
Procedure, shortened: as §1

NLK = biological target: T29, NLK (Homo sapiens, UniProt Q9UBE8)
T29 construct: purchased Eurofins DiscoverX KINOMEscan
Procedure, shortened: as §2

PLK3 = biological target: T30, PLK3 (Homo sapiens, UniProt Q9H4B4)
T30 construct: purchased Eurofins DiscoverX KINOMEscan
Procedure, shortened: as §2

KIT (A829P) = biological target: T31, KIT (A829P) (Homo sapiens, UniProt P10721, A829P)
T31 construct: purchased Eurofins DiscoverX KINOMEscan
Procedure, shortened: as §1

TAOK1 = biological target: T32, TAOK1 (Homo sapiens, UniProt Q7L7X3)
T32 construct: purchased Eurofins DiscoverX KINOMEscan
Procedure, shortened: as §1

TNK2 = biological target: T33, TNK2 (Homo sapiens, UniProt Q07912)
T33 construct: purchased Eurofins DiscoverX KINOMEscan
Procedure, shortened: as §1

BMX = biological target: T34, BMX (Homo sapiens, UniProt P51813)
T34 construct: purchased Eurofins DiscoverX KINOMEscan
Procedure, shortened: as §1

DDR1 = biological target: T35, DDR1 (Homo sapiens, UniProt Q08345)
T35 construct: purchased Eurofins DiscoverX KINOMEscan
Procedure, shortened: as §2

NEK7 = biological target: T36, NEK7 (Homo sapiens, UniProt Q8TDX7)
T36 construct: purchased Eurofins DiscoverX KINOMEscan
Procedure, shortened: as §1

AKT3 = biological target: T37, AKT3 (Homo sapiens, UniProt Q9Y243)
T37 construct: purchased Eurofins DiscoverX KINOMEscan
Procedure, shortened: as §1

SRPK3 = biological target: T38, SRPK3 (Homo sapiens, UniProt Q9UPE1)
T38 construct: purchased Eurofins DiscoverX KINOMEscan
Procedure, shortened: as §1

CSNK1E = biological target: T39, CSNK1E (Homo sapiens, UniProt P49674)
T39 construct: purchased Eurofins DiscoverX KINOMEscan
Procedure, shortened: as §2

p38-α = biological target: T40, p38-α (Homo sapiens, UniProt Q16539)
T40 construct: purchased Eurofins DiscoverX KINOMEscan
Procedure, shortened: as §1

CDC2L5 = biological target: T41, CDC2L5 (Homo sapiens, UniProt Q14004)
T41 construct: purchased Eurofins DiscoverX KINOMEscan
Procedure, shortened: as §1

T16 sequence (P53671 whole entry): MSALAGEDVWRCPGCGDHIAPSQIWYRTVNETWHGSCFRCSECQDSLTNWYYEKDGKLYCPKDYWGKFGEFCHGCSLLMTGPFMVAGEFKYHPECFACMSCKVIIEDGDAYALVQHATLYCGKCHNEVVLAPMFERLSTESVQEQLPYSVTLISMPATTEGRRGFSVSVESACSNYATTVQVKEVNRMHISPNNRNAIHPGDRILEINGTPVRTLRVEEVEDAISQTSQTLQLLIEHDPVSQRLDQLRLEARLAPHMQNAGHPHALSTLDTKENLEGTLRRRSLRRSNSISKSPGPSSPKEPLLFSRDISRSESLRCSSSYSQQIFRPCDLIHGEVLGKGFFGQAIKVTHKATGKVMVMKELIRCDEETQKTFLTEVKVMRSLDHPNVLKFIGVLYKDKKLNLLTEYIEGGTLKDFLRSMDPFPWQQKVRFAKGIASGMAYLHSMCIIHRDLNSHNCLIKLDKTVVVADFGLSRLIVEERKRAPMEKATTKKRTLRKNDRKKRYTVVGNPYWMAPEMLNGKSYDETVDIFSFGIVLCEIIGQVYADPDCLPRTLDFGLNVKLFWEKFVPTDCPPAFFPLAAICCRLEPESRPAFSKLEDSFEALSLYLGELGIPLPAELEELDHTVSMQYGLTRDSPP
T15 sequence (P50613 whole entry): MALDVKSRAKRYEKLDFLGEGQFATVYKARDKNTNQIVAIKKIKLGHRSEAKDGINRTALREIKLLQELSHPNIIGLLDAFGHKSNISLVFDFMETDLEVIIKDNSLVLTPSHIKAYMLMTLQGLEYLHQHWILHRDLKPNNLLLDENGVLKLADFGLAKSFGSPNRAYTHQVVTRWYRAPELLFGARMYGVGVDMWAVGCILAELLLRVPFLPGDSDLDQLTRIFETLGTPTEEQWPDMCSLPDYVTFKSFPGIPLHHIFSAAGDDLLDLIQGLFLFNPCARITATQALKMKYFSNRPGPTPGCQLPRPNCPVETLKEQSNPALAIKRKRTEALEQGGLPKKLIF
T29 sequence (Q9UBE8 whole entry): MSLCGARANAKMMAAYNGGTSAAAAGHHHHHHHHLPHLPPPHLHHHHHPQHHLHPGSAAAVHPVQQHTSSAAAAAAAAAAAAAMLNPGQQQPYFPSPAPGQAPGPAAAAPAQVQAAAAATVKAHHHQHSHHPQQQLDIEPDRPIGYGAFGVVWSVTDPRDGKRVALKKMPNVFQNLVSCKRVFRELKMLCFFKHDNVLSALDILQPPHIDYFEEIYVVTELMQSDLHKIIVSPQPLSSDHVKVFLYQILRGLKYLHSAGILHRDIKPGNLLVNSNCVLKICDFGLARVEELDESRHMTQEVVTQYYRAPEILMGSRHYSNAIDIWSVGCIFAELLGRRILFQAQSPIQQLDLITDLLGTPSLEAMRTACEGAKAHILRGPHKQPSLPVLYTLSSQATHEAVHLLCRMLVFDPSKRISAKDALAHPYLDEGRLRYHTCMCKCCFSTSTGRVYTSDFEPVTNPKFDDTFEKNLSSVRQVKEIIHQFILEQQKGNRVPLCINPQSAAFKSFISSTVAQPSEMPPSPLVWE
T37 sequence (Q9Y243 whole entry): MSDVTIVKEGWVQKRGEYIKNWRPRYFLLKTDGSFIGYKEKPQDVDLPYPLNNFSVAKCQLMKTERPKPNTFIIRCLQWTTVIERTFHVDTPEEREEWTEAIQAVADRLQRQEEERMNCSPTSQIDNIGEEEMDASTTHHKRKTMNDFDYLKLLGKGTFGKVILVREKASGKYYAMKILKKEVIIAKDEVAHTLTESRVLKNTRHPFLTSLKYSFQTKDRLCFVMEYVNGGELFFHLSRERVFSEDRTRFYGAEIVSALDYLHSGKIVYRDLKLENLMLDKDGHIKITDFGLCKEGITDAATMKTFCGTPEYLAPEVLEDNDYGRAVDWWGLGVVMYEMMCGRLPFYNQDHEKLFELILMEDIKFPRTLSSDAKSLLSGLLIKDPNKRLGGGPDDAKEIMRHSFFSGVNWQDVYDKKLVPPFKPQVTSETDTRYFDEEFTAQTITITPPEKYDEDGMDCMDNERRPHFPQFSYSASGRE
T40 sequence (Q16539 whole entry): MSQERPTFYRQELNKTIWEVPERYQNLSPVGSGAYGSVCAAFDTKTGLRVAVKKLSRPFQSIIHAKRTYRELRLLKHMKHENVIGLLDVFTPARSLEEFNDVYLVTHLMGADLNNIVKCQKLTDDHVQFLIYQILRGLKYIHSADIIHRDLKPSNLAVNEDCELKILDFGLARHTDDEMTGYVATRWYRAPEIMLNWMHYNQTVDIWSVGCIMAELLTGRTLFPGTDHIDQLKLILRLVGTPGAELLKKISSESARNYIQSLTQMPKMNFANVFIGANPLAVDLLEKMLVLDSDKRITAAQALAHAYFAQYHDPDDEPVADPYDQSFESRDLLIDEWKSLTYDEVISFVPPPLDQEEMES
T35 sequence (Q08345 19-913): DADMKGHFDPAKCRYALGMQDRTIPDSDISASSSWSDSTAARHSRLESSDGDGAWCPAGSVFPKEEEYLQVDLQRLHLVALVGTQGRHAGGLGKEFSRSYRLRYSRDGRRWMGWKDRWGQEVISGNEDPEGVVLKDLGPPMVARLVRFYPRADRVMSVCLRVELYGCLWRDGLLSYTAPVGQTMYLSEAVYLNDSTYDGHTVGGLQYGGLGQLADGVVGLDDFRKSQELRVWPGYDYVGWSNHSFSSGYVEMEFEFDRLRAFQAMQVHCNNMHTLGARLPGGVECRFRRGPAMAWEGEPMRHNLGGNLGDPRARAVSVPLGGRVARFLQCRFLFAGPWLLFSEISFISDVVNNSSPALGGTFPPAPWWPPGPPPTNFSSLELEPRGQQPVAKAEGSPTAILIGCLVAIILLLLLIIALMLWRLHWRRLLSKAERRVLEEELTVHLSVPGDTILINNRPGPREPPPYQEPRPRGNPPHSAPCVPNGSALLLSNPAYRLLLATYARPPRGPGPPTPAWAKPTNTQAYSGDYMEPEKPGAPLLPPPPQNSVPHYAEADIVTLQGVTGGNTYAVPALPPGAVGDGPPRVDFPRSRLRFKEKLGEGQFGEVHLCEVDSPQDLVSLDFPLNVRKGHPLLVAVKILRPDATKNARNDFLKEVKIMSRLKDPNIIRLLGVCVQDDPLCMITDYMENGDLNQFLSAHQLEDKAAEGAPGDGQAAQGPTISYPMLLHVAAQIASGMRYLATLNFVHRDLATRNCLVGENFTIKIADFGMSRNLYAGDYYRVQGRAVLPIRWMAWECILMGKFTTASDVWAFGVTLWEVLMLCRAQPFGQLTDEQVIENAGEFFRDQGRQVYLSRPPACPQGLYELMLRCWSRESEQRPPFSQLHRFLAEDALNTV
T12 sequence (Q13546 whole entry): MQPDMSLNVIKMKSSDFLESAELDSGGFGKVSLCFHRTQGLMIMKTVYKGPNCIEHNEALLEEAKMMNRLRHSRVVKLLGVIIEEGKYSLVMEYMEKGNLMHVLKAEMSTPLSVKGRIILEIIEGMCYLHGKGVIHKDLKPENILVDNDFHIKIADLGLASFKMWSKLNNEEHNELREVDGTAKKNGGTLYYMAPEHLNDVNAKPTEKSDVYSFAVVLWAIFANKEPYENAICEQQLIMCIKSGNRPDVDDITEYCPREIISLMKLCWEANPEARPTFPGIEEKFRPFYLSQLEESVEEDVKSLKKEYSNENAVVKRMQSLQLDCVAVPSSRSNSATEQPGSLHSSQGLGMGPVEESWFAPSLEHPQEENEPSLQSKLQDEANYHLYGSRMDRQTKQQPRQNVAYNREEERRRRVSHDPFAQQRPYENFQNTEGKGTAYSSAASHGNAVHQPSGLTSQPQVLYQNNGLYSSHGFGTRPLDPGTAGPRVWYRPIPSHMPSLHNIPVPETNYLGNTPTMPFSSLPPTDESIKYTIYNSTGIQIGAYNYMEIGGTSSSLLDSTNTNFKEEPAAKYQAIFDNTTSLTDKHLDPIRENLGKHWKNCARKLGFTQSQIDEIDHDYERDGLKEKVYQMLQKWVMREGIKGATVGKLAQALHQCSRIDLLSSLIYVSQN
T19 sequence (O14936 whole entry): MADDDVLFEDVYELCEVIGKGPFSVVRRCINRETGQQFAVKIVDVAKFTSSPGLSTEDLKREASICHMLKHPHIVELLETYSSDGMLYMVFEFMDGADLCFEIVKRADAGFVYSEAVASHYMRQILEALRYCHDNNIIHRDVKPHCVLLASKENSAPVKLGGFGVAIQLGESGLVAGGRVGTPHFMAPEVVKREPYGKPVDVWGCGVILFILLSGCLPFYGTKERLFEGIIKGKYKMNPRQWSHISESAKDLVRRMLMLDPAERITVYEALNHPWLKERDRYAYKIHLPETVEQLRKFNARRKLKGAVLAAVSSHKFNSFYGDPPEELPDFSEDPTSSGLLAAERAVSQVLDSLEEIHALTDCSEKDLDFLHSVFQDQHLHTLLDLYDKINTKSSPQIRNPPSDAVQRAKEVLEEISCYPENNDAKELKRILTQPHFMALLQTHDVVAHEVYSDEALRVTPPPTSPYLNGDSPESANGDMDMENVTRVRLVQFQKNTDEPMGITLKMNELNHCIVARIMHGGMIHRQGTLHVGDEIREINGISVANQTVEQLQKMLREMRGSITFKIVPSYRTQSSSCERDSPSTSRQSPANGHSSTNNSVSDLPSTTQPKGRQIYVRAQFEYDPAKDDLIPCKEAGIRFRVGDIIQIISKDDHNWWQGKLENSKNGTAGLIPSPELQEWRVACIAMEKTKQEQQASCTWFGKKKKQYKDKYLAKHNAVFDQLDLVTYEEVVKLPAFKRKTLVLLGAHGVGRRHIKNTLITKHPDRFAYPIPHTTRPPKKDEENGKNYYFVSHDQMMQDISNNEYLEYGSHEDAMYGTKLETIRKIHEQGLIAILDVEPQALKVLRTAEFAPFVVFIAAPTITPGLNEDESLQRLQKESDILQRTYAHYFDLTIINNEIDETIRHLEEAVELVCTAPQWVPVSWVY

With `O=C1Nc2c(cc([N+](=O)[O-])c3c2CCCC3)C1=NO` [Compound 5d, 3-(Hydroxyimino)-5-nitro-1,3,6,7,8,9-hexahydro-2H-benzo[g]indol-2-one] the inhibition at 10 µM (ULK1) was 15%, the inhibition at 10 µM (CAMK2A) was 71% and the inhibition at 10 µM (CDKL5) was 0%. It also gave an inhibition at 10 µM (PRKX) of 0%, an inhibition at 10 µM (TRKA) of 0% and an inhibition at 10 µM (KIT (V559D, V654A)) of 0%. The inhibition at 10 µM (ALK (C1156Y)) was 43%, the inhibition at 10 µM (PIP5K2C) was 40% and the inhibition at 10 µM (CSK) was 21%. It also gave an inhibition at 10 µM (ADCK3) of 12%, an inhibition at 10 µM (CHEK1) of 2% and an inhibition at 10 µM (RIPK1) of 0%. The inhibition at 10 µM (AXL) was 17%, the inhibition at 10 µM (GRK1) was 67% and the inhibition at 10 µM (CDK7) was 95.8%. For the same molecule, the inhibition at 10 µM (LIMK2) was 0%, the inhibition at 10 µM (DMPK2) was 3% and the inhibition at 10 µM (EIF2AK1) was 40%. The inhibition at 10 µM (CASK) was 2%, the inhibition at 10 µM (MAP3K1) was 6% and the inhibition at 10 µM (TRKB) was 34%. The inhibition at 10 µM (MAPKAPK5) was 2%, the inhibition at 10 µM (PRKCD) was 10% and the inhibition at 10 µM (TESK1) was 9%. It also gave an inhibition at 10 µM (NEK6) of 17%, an inhibition at 10 µM (PKN1) of 9% and an inhibition at 10 µM (TIE1) of 12%. The inhibition at 10 µM (MAP4K2) was 53%, the inhibition at 10 µM (NLK) was 11% and the inhibition at 10 µM (PLK3) was 51%. For the same molecule, the inhibition at 10 µM (KIT (A829P)) was 0%, the inhibition at 10 µM (TAOK1) was 62% and the inhibition at 10 µM (TNK2) was 2%. It also gave an inhibition at 10 µM (BMX) of 13%, an inhibition at 10 µM (DDR1) of 0% and an inhibition at 10 µM (NEK7) of 26%. The inhibition at 10 µM (AKT3) was 9%, the inhibition at 10 µM (SRPK3) was 66% and the inhibition at 10 µM (CSNK1E) was 80%. For the same molecule, the inhibition at 10 µM (p38-α) was 0% and the inhibition at 10 µM (CDC2L5) was 13%.
